Here are results for 13 molecules from patent US20220220128A1, “HETEROCYCLIC COMPOUNDS AS KINASE INHIBITORS, COMPOSITIONS COMPRISING THE HETEROCYCLIC COMPOUND, AND METHODS OF USE THEREOF” (JS Innopharm (Shanghai) Ltd, priority 2019, published 2022).

Experiment [1] concerns TT cells. Kind of experiment: TT Cell Proliferation Assay (WST-8, 8 days). The class given is cell-based. The note with it: Homo sapiens, TT, 192 h, growth inhibition in TT cells, read-out: TT Cellular Activity. The essentials: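 TT cells, 6,000/well in RPMI-1640 with 10% FBS, attached 24 h, then exposed to compound at 5 μM down to 0.0005 μM final (0.5% DMSO) for 8 days at 37 °C. WST-8 added for 5 h, absorbance at 450 nm. IC50 calculated from the dilution series.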

The target in experiment [2] is T1, human RET kinase (Homo sapiens, UniProt P07949).
T1 construct: purchased Carna 08-159
T1 sequence (P07949 29-1114): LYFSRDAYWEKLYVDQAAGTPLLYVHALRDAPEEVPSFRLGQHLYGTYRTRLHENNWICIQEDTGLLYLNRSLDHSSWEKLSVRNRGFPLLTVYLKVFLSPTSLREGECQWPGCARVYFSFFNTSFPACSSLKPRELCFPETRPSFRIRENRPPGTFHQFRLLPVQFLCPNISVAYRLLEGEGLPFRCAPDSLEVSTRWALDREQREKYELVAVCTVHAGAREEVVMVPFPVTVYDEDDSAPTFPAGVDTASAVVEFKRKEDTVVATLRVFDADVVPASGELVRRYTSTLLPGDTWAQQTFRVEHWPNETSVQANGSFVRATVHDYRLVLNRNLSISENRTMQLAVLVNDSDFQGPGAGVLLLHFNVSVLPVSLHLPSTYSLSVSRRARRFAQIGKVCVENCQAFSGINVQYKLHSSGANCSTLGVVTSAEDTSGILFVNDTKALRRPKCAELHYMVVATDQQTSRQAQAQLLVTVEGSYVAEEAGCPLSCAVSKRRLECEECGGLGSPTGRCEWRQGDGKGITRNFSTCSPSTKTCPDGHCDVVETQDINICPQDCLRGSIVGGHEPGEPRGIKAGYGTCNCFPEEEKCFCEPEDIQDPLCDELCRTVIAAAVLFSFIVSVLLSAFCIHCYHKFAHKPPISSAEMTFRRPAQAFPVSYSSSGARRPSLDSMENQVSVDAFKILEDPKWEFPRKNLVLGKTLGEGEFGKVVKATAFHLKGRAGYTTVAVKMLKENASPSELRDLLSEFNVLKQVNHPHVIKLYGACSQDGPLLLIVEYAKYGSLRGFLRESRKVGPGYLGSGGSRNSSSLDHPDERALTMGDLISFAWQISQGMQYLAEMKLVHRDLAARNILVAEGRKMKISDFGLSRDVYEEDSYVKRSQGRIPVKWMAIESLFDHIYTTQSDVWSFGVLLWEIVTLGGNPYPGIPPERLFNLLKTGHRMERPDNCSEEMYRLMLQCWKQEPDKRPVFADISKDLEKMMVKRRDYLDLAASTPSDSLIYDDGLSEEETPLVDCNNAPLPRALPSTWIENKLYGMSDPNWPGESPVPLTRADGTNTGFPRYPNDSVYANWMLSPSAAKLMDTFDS
Kind of experiment: RET Kinase Assay (LanthaScreen TR-FRET enzymatic assay). The class given is biochemical. Particulars: 7 nM RET, 23 μM ATP. An outline of the steps: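 Human RET (7 nM) preincubated 15 min with compound in 50 mM HEPES pH 7.5, 0.0015% Brij-35, then reacted with 3 μM FAM-P2 peptide and 23 μM ATP for 1 h at 28° C.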
For orientation: In TR-FRET formats the signal depends on donor and acceptor labels being close together.

For experiment [3], the target named is T2, BAF3-KIF5B-RET cells (Homo sapiens, UniProt P07949).
T2 construct: fused on or other part: P33176 (Kinesin-1 heavy chain)
T2 sequence (P07949 whole entry, change not shown, the tested form may be a part): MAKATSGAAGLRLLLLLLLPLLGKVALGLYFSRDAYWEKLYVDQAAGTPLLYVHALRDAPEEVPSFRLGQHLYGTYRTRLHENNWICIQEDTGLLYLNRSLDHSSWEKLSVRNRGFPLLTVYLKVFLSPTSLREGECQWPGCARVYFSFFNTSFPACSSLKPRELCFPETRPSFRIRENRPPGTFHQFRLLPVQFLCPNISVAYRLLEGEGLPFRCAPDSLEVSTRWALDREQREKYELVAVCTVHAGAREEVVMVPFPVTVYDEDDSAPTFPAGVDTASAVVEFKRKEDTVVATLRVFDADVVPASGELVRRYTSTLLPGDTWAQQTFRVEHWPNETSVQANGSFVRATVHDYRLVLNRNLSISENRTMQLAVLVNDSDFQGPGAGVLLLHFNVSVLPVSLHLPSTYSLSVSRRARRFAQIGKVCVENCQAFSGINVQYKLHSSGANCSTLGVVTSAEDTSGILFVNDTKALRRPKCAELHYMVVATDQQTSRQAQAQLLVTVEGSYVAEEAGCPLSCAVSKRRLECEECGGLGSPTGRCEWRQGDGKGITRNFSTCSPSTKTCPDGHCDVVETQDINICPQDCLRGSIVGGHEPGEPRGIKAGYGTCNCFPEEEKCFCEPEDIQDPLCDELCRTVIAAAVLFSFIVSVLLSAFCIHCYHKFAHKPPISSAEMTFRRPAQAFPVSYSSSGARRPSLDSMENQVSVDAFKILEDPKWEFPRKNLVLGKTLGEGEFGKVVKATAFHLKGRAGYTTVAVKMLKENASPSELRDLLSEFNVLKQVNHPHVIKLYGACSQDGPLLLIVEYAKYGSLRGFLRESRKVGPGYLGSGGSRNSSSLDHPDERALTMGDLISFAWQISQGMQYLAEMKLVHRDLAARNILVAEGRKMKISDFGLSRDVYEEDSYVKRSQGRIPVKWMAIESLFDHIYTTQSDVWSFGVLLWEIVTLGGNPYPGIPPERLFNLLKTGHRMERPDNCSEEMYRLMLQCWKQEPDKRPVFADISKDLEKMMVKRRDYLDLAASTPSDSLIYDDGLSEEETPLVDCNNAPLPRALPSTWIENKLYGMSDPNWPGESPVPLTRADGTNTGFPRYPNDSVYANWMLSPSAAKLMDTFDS
Kind of experiment: BAF3-KIF5B-RET Cell proliferation assay (CellTiter-Glo, 72 hours). The class given is cell-based. Particulars: growth inhibition, read-out: BA/F3-KIF5B-RET Cellular activity. The essentials:
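Cells seeded at 2,000/well in RPMI-1640 with 10% FBS and left 24 h at 37 °C, then exposed 72 h to nine compound levels (final 1 μM down to 0.00015 μM, 0.1% DMSO). CellTiter-Glo luminescence gave viability versus DMSO wells, from which IC50 was fitted.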

Experiment [4] addresses T3, human KDR kinase (Homo sapiens, UniProt P35968).
T3 construct: purchased Carna 08-191
Kind of experiment: KDR Kinase Assay (LanthaScreen TR-FRET enzymatic assay). Particulars: 1.2 nM KDR, 92 μM ATP. The class given is biochemical. The essentials:
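Recombinant human KDR (1.2 nM) preincubated 15 min at room temperature with compound, then reacted with 3 μM FAM-P22 peptide and 92 μM ATP in 50 mM HEPES pH 7.5 for 1 h at 28° C. EDTA stop, then TR-FRET acceptor/donor ratio read; percent of 1% DMSO control fitted sigmoidally for IC50.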

T3 sequence (P35968 20-1356): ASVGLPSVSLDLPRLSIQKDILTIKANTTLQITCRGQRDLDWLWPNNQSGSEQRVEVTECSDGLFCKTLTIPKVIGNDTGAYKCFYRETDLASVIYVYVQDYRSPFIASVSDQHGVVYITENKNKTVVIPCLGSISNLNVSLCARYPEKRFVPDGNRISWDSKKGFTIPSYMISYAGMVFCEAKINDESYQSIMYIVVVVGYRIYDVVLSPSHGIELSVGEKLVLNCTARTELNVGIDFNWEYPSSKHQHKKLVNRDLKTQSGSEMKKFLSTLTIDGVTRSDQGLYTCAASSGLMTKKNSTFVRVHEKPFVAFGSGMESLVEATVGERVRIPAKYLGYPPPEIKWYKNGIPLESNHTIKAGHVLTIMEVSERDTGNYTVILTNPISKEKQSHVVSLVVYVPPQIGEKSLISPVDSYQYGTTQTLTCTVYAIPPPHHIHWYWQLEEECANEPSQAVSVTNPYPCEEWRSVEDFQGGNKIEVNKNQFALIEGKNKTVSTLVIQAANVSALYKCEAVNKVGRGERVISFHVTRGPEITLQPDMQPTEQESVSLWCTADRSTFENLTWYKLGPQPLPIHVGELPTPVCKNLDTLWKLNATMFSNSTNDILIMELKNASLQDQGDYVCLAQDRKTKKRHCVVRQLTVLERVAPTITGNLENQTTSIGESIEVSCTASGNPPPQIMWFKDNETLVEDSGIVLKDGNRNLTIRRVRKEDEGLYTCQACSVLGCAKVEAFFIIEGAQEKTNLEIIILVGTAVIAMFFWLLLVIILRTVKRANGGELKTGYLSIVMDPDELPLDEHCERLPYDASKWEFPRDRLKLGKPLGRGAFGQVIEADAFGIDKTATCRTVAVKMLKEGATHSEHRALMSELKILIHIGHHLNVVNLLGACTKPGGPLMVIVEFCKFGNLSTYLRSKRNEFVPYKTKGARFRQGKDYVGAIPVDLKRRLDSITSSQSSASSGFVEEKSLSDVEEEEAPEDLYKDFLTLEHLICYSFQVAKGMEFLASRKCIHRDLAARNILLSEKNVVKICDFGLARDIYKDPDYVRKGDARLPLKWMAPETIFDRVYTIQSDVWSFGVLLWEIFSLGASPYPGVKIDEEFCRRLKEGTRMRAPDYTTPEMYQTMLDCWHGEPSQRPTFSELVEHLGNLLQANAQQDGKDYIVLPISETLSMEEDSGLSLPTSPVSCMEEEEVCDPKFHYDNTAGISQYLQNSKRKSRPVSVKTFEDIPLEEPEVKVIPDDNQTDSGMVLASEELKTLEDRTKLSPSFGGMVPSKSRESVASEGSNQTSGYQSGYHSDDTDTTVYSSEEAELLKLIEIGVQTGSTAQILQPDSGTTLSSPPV

`CC(C)C(O)C(=O)NC[C@@H]1[C@H]2CN(c3ccc(-c4cc(-c5cnn(C)c5)cn5ncc(C#N)c45)cn3)C[C@@H]12` (stereo partly drawn) [Example 75, N-(((1R,5S,6s)-3-(5-(3-cyano-6-(1-methyl-1H-pyrazol-4-yl)pyrazolo[1,5-a]pyridin-4-yl)pyridin-2-yl)-3-azabicyclo[3.1.0]hexan-6-yl)methyl)-2-hydroxy-3-methylbutanamide]: the IC50 in experiment [1] is ≤ 10 nM; in experiment [2] it was ≤ 10 nM; in experiment [4], 10 to 50 nM. For the same molecule, the GI50 in experiment [3] was ≤ 10 nM.

In the case of `Cn1cc(-c2cc(-c3ccc(N4C5CC6CC4CC(C(=O)Nc4ncccc4Cl)(C6)C5)nc3)c3c(C#N)cnn3c2)cn1` [Example 90, (1R,3S,5s,7s)-N-(3-chloropyridin-2-yl)-2-(5-(3-cyano-6-(1-methyl-1H-pyrazol-4-yl)pyrazolo[1,5-a]pyridin-4-yl)pyridin-2-yl)-2-azaadamantane-5-carboxamide], the IC50 in experiment [1], in experiment [2] and in experiment [4] was ≤ 10 nM each time. Further, in experiment [3], the GI50 is ≤ 10 nM.

For the molecule `CC(C)(O)COc1cc(-c2ccc(N3C[C@@H]4C[C@@](C)(NC(=O)c5c(F)cccc5Cl)C[C@@H]4C3)nc2)c2c(C#N)cnn2c1` [Example 96, 2-chloro-N-((3aR,5s,6aS)-2-(5-(3-cyano-6-(2-hydroxy-2-methylpropoxy)pyrazolo[1,5-a]pyridin-4-yl)pyridin-2-yl)-5-methyloctahydrocyclopenta[c]pyrrol-5-yl)-6-fluorobenzamide], the IC50 in experiment [1] was ≤ 10 nM; in experiment [2], ≤ 10 nM; in experiment [4], 10 to 50 nM. Moreover, the GI50 in experiment [3] was ≤ 10 nM.

As to `CC(=O)NC12CC3CC(C1)N(c1ccc(-c4cc(-c5cnn(C)c5)cn5ncc(C#N)c45)cn1)C(C3)C2` [Example 97, N-((1R,3S,5s,7s)-2-(5-(3-cyano-6-(1-methyl-1H-pyrazol-4-yl)pyrazolo[1,5-a]pyridin-4-yl)pyridin-2-yl)-2-azaadamantan-5-yl)acetamide], the IC50 in experiment [1], in experiment [2] and in experiment [4] was ≤ 10 nM each time. Moreover, in experiment [3], the GI50 is ≤ 10 nM.

Regarding `CC(C)(O)COc1cc(-c2ccc(N3C4CC5CC3CC(C(=O)Nc3ncccc3Cl)(C5)C4)nc2)c2c(C#N)cnn2c1` [Example 98, (1R,3 S,5s,7s)-N-(3-chloropyridin-2-yl)-2-(5-(3-cyano-6-(2-hydroxy-2-methylpropoxy)pyrazolo[1,5-a]pyridin-4-yl)pyridin-2-yl)-2-azaadamantane-5-carboxamide], the values for the IC50 in experiment [1], in experiment [2] and in experiment [4] were ≤ 10 nM, ≤ 10 nM and 10 to 50 nM, respectively. Also, the GI50 in experiment [3] is ≤ 10 nM.

`COc1ccc(CN[C@]2(C)C[C@H]3CN(c4cnc(-c5cc(-c6cnn(C)c6)cn6ncc(C#N)c56)cn4)C[C@H]3C2)cn1` [Example 101, 4-(5-((3aR,5s,6aS)-5-(((6-methoxypyridin-3-yl)methyl)amino)-5-methylhexahydrocyclopenta[c]pyrrol-2(1H)-yl)pyrazin-2-yl)-6-(1-methyl-1H-pyrazol-4-yl)pyrazolo[1,5-a]pyridine-3-carbonitrile]: the IC50 was 50 to 100 nM in experiment [1], ≤ 10 nM in experiment [2] and 50 to 100 nM in experiment [4]. Also, the GI50 in experiment [3] lay within 50 to 100 nM.

Take `Cn1cc(-c2cc(-c3ccc(N4C[C@@H]5C[C@@](C)(NC(=O)c6ncccc6C#N)C[C@@H]5C4)nc3)c3c(C#N)cnn3c2)cn1` [Example 121, 3-cyano-N-((3aR,5s,6aS)-2-(5-(3-cyano-6-(1-methyl-1H-pyrazol-4-yl)pyrazolo[1,5-a]pyridin-4-yl)pyridin-2-yl)-5-methyloctahydrocyclopenta[c]pyrrol-5-yl)picolinamide]: the IC50 in experiment [1], in experiment [2] and in experiment [4] was ≤ 10 nM in each case. Further, the GI50 in experiment [3] is ≤ 10 nM.

Regarding `CC(C)C(=O)NC12CC3CC(C1)N(c1ccc(-c4cc(OCC(C)(C)O)cn5ncc(C#N)c45)cn1)C(C3)C2` [Example 132, N-((1R,3S,5s,7s)-2-(5-(3-cyano-6-(2-hydroxy-2-methylpropoxy)pyrazolo[1,5-a]pyridin-4-yl)pyridin-2-yl)-2-azaadamantan-5-yl)isobutyramide], the IC50 is ≤ 10 nM in experiment [1], ≤ 10 nM in experiment [2] and > 100 nM in experiment [4]. In addition, in experiment [3], the GI50 fell in the range of 10 to 50 nM.

For `CC(C)(O)COc1cc(-c2ccc(N3C4CC5CC3CC(NC(=O)c3ncccc3Cl)(C5)C4)nc2)c2c(C#N)cnn2c1` [Example 135, 3-chloro-N-((1R,3S,5s,7s)-2-(5-(3-cyano-6-(2-hydroxy-2-methylpropoxy)pyrazolo[1,5-a]pyridin-4-yl)pyridin-2-yl)-2-azaadamantan-5-yl)picolinainide], the IC50 in experiment [1] was ≤ 10 nM; in experiment [2], ≤ 10 nM; in experiment [4] it was 10 to 50 nM. In addition, the GI50 in experiment [3] is ≤ 10 nM.

On to `CCOc1cc(-c2ccc(N3C4CC5CC3CC(NC(=O)c3ncccc3Cl)(C5)C4)nc2)c2c(C#N)cnn2c1` [Example 136, 3-chloro-N-((1R,3S,5s,7s)-2-(5-(3-cyano-6-ethoxypyrazolo[1,5-a]pyridin-4-yl)pyridin-2-yl)-2-azaadamantan-5-yl)picolinamide], for which the values for the IC50 in experiment [1], in experiment [2] and in experiment [4] were ≤ 10 nM, ≤ 10 nM and 10 to 50 nM, respectively. Besides, in experiment [3], the GI50 is ≤ 10 nM.

As for `CC(C)(O)COc1cc(-c2ccc(N3C4CC5CC3CC(NC(=O)c3ncccc3F)(C5)C4)nc2)c2c(C#N)cnn2c1` [Example 137, N-((1R,3S,5s,7s)-2-(5-(3-cyano-6-(2-hydroxy-2-methylpropoxy)pyrazolo[1,5-a]pyridin-4-yl)pyridin-2-yl)-2-azaadamantan-5-yl)-3-fluoropicolinamide], the IC50 in experiment [1] is ≤ 10 nM; in experiment [2], ≤ 10 nM; in experiment [4] it was 50 to 100 nM. Also, the GI50 in experiment [3] was ≤ 10 nM.

For the molecule `Cn1cc(-c2cc(-c3ccc(N4C5CC6CC4CC(NC(=O)OC(C)(C)C)(C6)C5)nc3)c3c(C#N)cnn3c2)cn1` [Example 180], the IC50 in experiment [1], in experiment [2] and in experiment [4] was ≤ 10 nM each time. Besides, the GI50 in experiment [3] is ≤ 10 nM.

Regarding `Cn1cc(-c2cc(-c3ccc(N4C5CC6CC4CC(N)(C6)C5)nc3)c3c(C#N)cnn3c2)cn1` [Example 181, 4-(6-((1R,3S,5s,7s)-5-amino-2-azaadamantan-2-yl)pyridin-3-yl)-6-(1-methyl-1H-pyrazol-4-yl)pyrazolo[1,5-a]pyridine-3-carbonitrile], the IC50 in experiment [1], in experiment [2] and in experiment [4] was ≤ 10 nM throughout. Besides, the GI50 in experiment [3] was 10 to 50 nM.
